Results from patent US20230339878A1, “SLC26A3 INHIBITORS AND USE THEREOF” (THE REGENTS OF THE UNIVERSITY OF CALIFORNIA, priority 2018, published 2023).
“Also recorded” adds a separate entry of the source.

Key:
PAT-1 (slc26a6) = biological target: T1, PAT-1 (slc26a6) (Mus musculus, UniProt Q8CIW6); test: Selectivity: slc26a6 Cl-/I- exchange in HEK cells; type: cell-based, murine; settings: 10 µM
T1 construct: full-length slc26a6 was subcloned into pLVX-YFP-T2A-Puro as an EcoRI to XbaI fragment; host or cells: HEK293 cells infected with lentivirus, puromycin selected
T1 sequence (Q8CIW6 1-758): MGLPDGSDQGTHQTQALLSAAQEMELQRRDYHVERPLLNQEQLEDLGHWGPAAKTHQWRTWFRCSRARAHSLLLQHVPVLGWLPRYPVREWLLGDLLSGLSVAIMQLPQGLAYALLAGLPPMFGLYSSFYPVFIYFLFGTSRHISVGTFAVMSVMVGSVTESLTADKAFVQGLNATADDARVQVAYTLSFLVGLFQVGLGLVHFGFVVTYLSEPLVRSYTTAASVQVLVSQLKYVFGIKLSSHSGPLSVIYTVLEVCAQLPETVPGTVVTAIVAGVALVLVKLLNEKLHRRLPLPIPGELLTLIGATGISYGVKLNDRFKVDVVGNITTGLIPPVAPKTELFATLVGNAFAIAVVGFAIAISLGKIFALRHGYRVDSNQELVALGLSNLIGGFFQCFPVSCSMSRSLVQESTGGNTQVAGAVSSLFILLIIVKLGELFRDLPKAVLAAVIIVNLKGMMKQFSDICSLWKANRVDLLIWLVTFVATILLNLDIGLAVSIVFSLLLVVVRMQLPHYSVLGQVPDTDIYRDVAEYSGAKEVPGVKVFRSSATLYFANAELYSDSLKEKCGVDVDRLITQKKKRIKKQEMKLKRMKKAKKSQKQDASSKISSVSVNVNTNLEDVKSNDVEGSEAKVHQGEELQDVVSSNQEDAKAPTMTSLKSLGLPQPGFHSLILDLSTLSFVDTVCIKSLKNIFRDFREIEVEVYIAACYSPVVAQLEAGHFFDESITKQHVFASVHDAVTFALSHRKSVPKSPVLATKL

[1] = tested on: cystic fibrosis (CF) mice (ΔF508 homozygous) lacking functional CFTR; test: Loperamide-induced constipation model in cystic fibrosis mice; type: in vivo; settings: 5 mg/kg oral
Experimental: Female CD1 mice (age 8-10 weeks) were administered loperamide (0.3 mg/kg, intraperitoneally, Sigma-Aldrich) to produce constipation. Compound A1 (DRAinh-A250) (5 mg/kg, in saline containing vehicle (5% DMSO and 10% Kolliphor HS 15; Sigma-Aldrich)), tenapanor (5 mg/kg, in vehicle), both compounds (5 mg/kg each, in vehicle), or vehicle alone were administered by oral gavage 1 hour before loperamide. After loperamide injection, mice were placed individually in metabolic cages with ad libitum access to food and water. Stool samples were collected for 3 h, and total stool weight and number of fecal pellets were quantified. To measure stool water content, stool samples were dried at 80° C. for 24 h and water content was calculated as [wet weight-dry weight]/wet weight. Similar studies were done in cystic fibrosis (CF) mice (ΔF508 homozygous) lacking functional CFTR.

## Cc1c(CC(=O)O)c(=O)oc2c(C)c(OCc3cccc(Br)c3)ccc12 [Compound A1]
PAT-1 (slc26a6)
  effect on Cl-/I- exchange activity of PAT-1 (slc26a6): did not alter; also recorded: did not inhibit; also recorded: differences not significant
[1]
  efficacy in loperamide-induced constipation in CF mice: effective in loperamide-treated cystic fibrosis mice; also recorded: reduces loperamide-induced constipation
